# Measured values published in US20120135923A1, “Use of Melanocortins to Treat Dyslipidemia” (IPSEN PHARMA, S.A.S., priority 2009, published 2012).
# pEC50, pKi: −log10 of the molar value. Like-named read-outs stand apart in the source and are kept apart here. Bridge positions count the residues as written; N and C are the ends. Square brackets hold non-standard residues; d marks the D form. Peptide text beside a SMILES is read from it. 2Nal = N[C@@H](Cc1ccc2ccccc2c1)C(=O)O; d2Nal = N[C@H](Cc1ccc2ccccc2c1)C(=O)O; Bta = N[C@@H](Cc1csc2ccccc12)C(=O)O; hArg = N=C(N)NCCCC[C@H](N)C(=O)O; Pen = CC(C)(S)[C@H](N)C(=O)O; Nle = CCCC[C@H](N)C(=O)O; GABA = NCCCC(=O)O; βAla = NCCC(=O)O
# Columns and labels:
# [1] = target: T1, hMC1-R (Homo sapiens, UniProt Q01726); test: Radioligand binding assay, [125I]-NDP-α-MSH competition, CHO-K1 membranes
# T1 construct: expressed in transfected cells; host or cells: CHO-K1
# [2] = target: T2, hMC4-R (Homo sapiens, UniProt P32245); test: as above
# T2 construct: expressed in transfected cells; host or cells: CHO-K1
# [3] = target: T3, hMC3-R (Homo sapiens, UniProt P41968); test: cyclic AMP bioassay (ECL) in CHO-K1 cells; type: cell-based
# T3 construct: expressed in transfected cells; host or cells: CHO-K1
# [4] = target: T2, hMC4-R; test: cyclic AMP bioassay (ECL) in CHO-K1 cells; type: cell-based
# [5] = target: T1, hMC1-R; test: cyclic AMP bioassay (ECL) in CHO-K1 cells; type: cell-based
# Description: Intracellular cyclic AMP (cAMP) levels were determined by an electrochemiluminescence (ECL) assay (Meso Scale Discovery®, Gaithersburg, Md.; referred to hereinafter as MSD). […] Transgenic CHO-K1 cells stably expressing hMC receptor subtypes 1, 3, 4 or 5 were dispensed at a density of approximately 7,000 cells/well in 384-well Multi-Array®plates (MSD) containing integrated carbon electrodes and coated with anti-cAMP antibody. Increasing concentrations of the test compounds were added and the cells were incubated for approximately 40 minutes at approximately 37° C. […] At the end of the second incubation period read buffer (Tris-buffered solution containing an ECL co-reactant and Triton X-100 at ph 7.8) was added and the cAMP levels in the cell lysates were immediately determined by ECL detection with a Sector Imager 6000 Reader® (MSD). Data were analyzed using a computer-assisted non-linear regression analysis (XL fit; IDBS) and reported as either an EC50 value or a Kb value.
# The Kb value reflects the potency of an antagonist and is determined by Schild analysis. In brief, concentration-response curves of an agonist are carried out in the presence of increasing concentrations of an antagonist. […] It is calculated by extrapolating the line on a Schild plot to zero on the y-axis.
# [6] = target: T4, hMC5-R (Homo sapiens, UniProt P33032); test: cyclic AMP bioassay (ECL) in CHO-K1 cells; type: cell-based
# T4 construct: expressed in transfected cells; host or cells: CHO-K1
# [7] = target: T3, hMC3-R; test: Radioligand binding assay, [125I]-NDP-α-MSH competition, CHO-K1 membranes
# [8] = target: T4, hMC5-R; test: as above
# T3 sequence (P41968 whole entry): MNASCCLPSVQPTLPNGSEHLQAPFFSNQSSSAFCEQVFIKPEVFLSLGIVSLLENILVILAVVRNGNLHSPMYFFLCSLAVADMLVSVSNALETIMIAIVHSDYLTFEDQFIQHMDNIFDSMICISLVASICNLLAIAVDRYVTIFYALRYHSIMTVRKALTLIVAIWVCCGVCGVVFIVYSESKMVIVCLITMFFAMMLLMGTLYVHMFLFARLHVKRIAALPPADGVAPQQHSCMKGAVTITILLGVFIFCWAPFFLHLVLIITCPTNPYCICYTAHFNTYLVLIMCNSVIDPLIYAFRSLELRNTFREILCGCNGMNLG
# T2 sequence (P32245 whole entry): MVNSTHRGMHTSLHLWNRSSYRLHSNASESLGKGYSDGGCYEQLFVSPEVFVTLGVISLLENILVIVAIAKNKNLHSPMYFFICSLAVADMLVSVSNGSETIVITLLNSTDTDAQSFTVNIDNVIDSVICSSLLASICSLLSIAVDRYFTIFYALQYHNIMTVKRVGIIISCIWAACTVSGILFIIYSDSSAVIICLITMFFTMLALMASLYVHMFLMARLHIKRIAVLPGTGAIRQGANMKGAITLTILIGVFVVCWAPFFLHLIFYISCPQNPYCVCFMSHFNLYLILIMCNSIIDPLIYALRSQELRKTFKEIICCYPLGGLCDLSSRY
# T1 sequence (Q01726 whole entry): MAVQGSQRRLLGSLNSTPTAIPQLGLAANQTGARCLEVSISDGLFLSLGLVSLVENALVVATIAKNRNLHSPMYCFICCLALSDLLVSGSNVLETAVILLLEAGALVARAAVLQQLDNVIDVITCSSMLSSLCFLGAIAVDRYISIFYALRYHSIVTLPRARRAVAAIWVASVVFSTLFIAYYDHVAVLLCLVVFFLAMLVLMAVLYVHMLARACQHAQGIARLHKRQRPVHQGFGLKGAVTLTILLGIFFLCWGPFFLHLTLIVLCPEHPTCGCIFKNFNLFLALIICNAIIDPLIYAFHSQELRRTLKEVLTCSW
# T4 sequence (P33032 whole entry): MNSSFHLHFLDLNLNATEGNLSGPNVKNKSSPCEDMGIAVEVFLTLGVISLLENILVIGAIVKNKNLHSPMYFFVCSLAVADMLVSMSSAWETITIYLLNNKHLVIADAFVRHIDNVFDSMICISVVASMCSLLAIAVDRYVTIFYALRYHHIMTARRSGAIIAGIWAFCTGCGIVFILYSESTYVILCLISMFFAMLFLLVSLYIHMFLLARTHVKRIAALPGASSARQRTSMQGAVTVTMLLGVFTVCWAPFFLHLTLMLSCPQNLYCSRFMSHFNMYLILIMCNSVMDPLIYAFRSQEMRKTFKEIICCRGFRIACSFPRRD
smiles,measurement,setting,value
C[C@@H]1C(=O)N[C@@H](Cc2cnc[nH]2)C(=O)N[C@H](Cc2ccccc2)C(=O)N[C@@H](CCCNC(=N)N)C(=O)N[C@@H](Cc2c[nH]c3ccccc23)C(=O)N[C@H](C(N)=O)CNC(=O)C[C@@H]2NC(=O)N1C2=O [c[Hydantoin(C(O)-(Asp-D-Ala))-His-D-Phe-Arg-Trp-Dap]-NH2],pKi,"[1]; Table 7, read-out: Ki hMC1",7.18
same,pKi,"[2]; Table 7, read-out: Ki hMC4",7.70
same,pEC50,"[3]; Table 11, read-out: EC50 hMC3",7.31
same,pEC50,"[4]; Table 11, read-out: EC50 hMC4",8.67
CC(=O)N[C@@H](CC1CCCCC1)C(=O)N[C@H]1CC(=O)NCCCC[C@@H](C(N)=O)NC(=O)CCCNC(=O)[C@H](Cc2c[nH]c3ccccc23)NC(=O)[C@H](CCCNC(=N)N)NC(=O)[C@@H](Cc2ccccc2)NC(=O)[C@H](Cc2c[nH]cn2)NC1=O [Ac-Cha-c(Asp-His-D-Phe-Arg-Trp-Gaba-Lys)-NH2],pKi,"[2]; Table 5, read-out: Ki KMC4-R",8.83
same,pEC50,"[5]; Table 9A/9B, read-out: EC50 hMC1-R",8.49
same,pEC50,"[3]; Table 9A/9B, read-out: EC50 hMC3-R",9.72
same,pEC50,"[4]; Table 9A/9B, read-out: EC50 hMC4-R",10.02
same,pEC50,"[6]; Table 9A/9B, read-out: EC50 hMC5-R",7.52
C[C@@H](O)[C@H](NC(=O)[C@H]1CSSC[C@H](NC(=O)[C@H](N)Cc2ccccc2)C(=O)N[C@@H](Cc2c[nH]cn2)C(=O)N[C@H](Cc2ccccc2)C(=O)N[C@@H](CCCCNC(=N)N)C(=O)N[C@@H](Cc2c[nH]c3ccccc23)C(=O)NCCC(=O)N1)C(N)=O [D-Phe-c(Cys-His-D-Phe-hArg-Trp-β-Ala-D-Cys)-Thr-NH2] (H-[dF]CH[dF][hArg]W[βAla][dC]T-NH2; disulfide 2-8),pKi,"[1]; Table 5, read-out: Ki hMC1-R",9.35
same,pKi,"[7]; Table 5, read-out: Ki hMC3-R",6.91
same,pKi,"[2]; Table 5, read-out: Ki KMC4-R",7.99
same,pKi,"[8]; Table 5, read-out: Ki hMC5-R",6.28
CCCC[C@H](NC(C)=O)C(=O)N[C@H]1CSSC[C@@H](C(N)=O)NC(=O)[C@H](Cc2c[nH]c3ccccc23)NC(=O)[C@H](CCCNC(=N)N)NC(=O)[C@@H](Cc2ccc3ccccc3c2)NC(=O)[C@H](Cc2c[nH]cn2)NC(=O)[C@@H](C)NC1=O [Ac-Nle-c(Cys-D-Ala-His-D-2-Nal-Arg-Trp-Cys)-NH2],pKi,"[2]; Ki KMC4-R, Table 5",8.12
same,pKi,"[8]; Ki hMC5-R, Table 5",6.99
same,pEC50,[5],7.75
same,Kb,[3],12.4 nM
same,Kb,[4],38.8 nM
same,pEC50,[6],7.93
CCCC[C@H](NC(C)=O)C(=O)N[C@H]1CSSC[C@@H](C(N)=O)NC(=O)[C@@H](C)NC(=O)[C@H](Cc2c[nH]c3ccccc23)NC(=O)[C@H](CCCNC(=N)N)NC(=O)[C@@H](Cc2ccccc2)NC(=O)[C@H](Cc2c[nH]cn2)NC(=O)[C@@H](C)NC1=O [Ac-Nle-c(Cys-D-Ala-His-D-Phe-Arg-Trp-D-Ala-Cys)-NH2] (Ac-[Nle]C[dA]H[dF]RW[dA]C-NH2; disulfide 2-9),pKi,"[1]; Table 5, read-out: Ki hMC1-R",8.41
same,pKi,"[7]; Table 5, read-out: Ki hMC3-R",6.06
same,pKi,"[2]; Table 5, read-out: Ki KMC4-R",7.32
same,pKi,"[8]; Table 5, read-out: Ki hMC5-R",5.31
CC(=O)N[C@@H](CCc1ccccc1)C(=O)N[C@H]1CC(=O)NCCCC[C@@H](C(N)=O)NC(=O)CCCNC(=O)[C@H](Cc2c[nH]c3ccccc23)NC(=O)[C@H](CCCNC(=N)N)NC(=O)[C@@H](Cc2ccc3ccccc3c2)NC(=O)[C@H](Cc2c[nH]cn2)NC1=O [Ac-hPhe-c(Asp-His-D-2-Nal-Arg-Trp-Gaba-Lys)-NH2],pKi,"[1]; Table 5, read-out: Ki hMC1-R",9.34
same,pKi,"[7]; Table 5, read-out: Ki hMC3-R",8.61
same,pKi,"[2]; Table 5, read-out: Ki KMC4-R",9.03
same,pEC50,"[5]; Table 9C/9D, read-out: EC50 hMC1-R",9.38
same,Kb,"[3]; Table 9C/9D, antagonist potency by Schild analysis, read-out: Kb hMC3-R",9.32 nM
same,Kb,"[4]; Table 9C/9D, antagonist potency by Schild analysis, read-out: Kb MC4-R",0.824 nM
same,pEC50,"[6]; Table 9C/9D, read-out: EC50 hMC5-R",9.51
CCCC[C@H](NC(C)=O)C(=O)N[C@H]1CSSC[C@@H](C(N)=O)NC(=O)[C@H](Cc2ccc3ccccc3c2)NC(=O)[C@H](CCCNC(=N)N)NC(=O)[C@@H](Cc2ccc3ccccc3c2)NC(=O)[C@H](Cc2c[nH]cn2)NC(=O)[C@@H](C)NC1=O [Ac-Nle-c(Cys-D-Ala-His-D-2-Nal-Arg-2-Nal-Cys)-NH2] (Ac-[Nle]C[dA]H[d2Nal]R[2Nal]C-NH2; disulfide 2-8),pKi,"[1]; Table 5, read-out: Ki hMC1-R",7.49
same,pKi,"[7]; Table 5, read-out: Ki hMC3-R",8.23
same,pKi,"[2]; Table 5, read-out: Ki KMC4-R",8.60
same,pKi,"[8]; Table 5, read-out: Ki hMC5-R",7.02
CC(=O)N[C@H]1CSSC[C@@H](C(=O)N2CCC[C@H]2C(=O)N2CCC[C@H]2C(=O)N[C@@H](CCCCN)C(=O)N[C@@H](CC(=O)O)C(N)=O)NC(=O)[C@H](C)NC(=O)[C@H](Cc2csc3ccccc23)NC(=O)[C@H](CCCNC(=N)N)NC(=O)[C@@H](Cc2ccc3ccccc3c2)NC(=O)[C@H](Cc2c[nH]cn2)NC(=O)[C@H](CCC(=O)O)NC1=O [Ac-c(Cys-Glu-His-D-2-Nal-Arg-Bal-Ala-Cys)-Pro-Pro-Lys-Asp-NH2] (Ac-CEH[d2Nal]R[Bta]ACPPKD-NH2; disulfide 1-8),pKi,"[1]; Table 6, read-out: Ki hMC1-R",6.79
same,pKi,"[7]; Table 6, read-out: Ki hMC3-R",7.64
same,pKi,"[2]; Table 6, read-out: Ki hMC4-R",9.23
same,pKi,"[8]; Table 6, read-out: Ki hMC5-R",6.07
CC(=O)N[C@H]1CSSC[C@@H](C(=O)N2CCC[C@H]2C(=O)N2CCC[C@H]2C(=O)N[C@@H](CCCCN)C(=O)N[C@@H](CC(=O)O)C(=O)NCCC(=O)N[C@@H](CCCNC(=N)N)C(=O)N[C@@H](CCCNC(=N)N)C(=O)N[C@@H](CCCCN)C(=O)N[C@@H](CCCNC(=N)N)C(=O)N[C@@H](CCCNC(=N)N)C(=O)N[C@@H](CCC(N)=O)C(=O)N[C@@H](CCCNC(=N)N)C(=O)N[C@@H](CCCNC(=N)N)C(=O)N[C@@H](CCCNC(=N)N)C(N)=O)NC(=O)[C@H](C)NC(=O)[C@H](Cc2csc3ccccc23)NC(=O)[C@H](CCCNC(=N)N)NC(=O)[C@@H](Cc2ccc3ccccc3c2)NC(=O)[C@H](Cc2c[nH]cn2)NC(=O)[C@H](CCC(=O)O)NC1=O,pKi,"[2]; Ki hMC4-R, Table 6",9.35
same,pKi,"[8]; Ki hMC5-R, Table 6",7.81
same,pEC50,[5],6.63
same,Kb,[4],10 nM
same,pEC50,[6],6.60
CC[C@H](C)[C@@H]1NC(=O)N([C@H]2CSSC[C@@H](C(N)=O)NC(=O)[C@H](Cc3c[nH]c4ccccc34)NC(=O)[C@H](CCCNC(=N)N)NC(=O)[C@@H](Cc3ccccc3)NC(=O)[C@H](Cc3cnc[nH]3)NC(=O)[C@@H](C)NC2=O)C1=O [c[Hydantoin(C(O)-(Ile-Cys))-D-Ala-His-D-Phe-Arg-Trp-Cys]-NH2],pKi,"[1]; Ki hMC1, Table 7",7.27
same,pKi,"[2]; Ki hMC4, Table 7",7.38
same,pEC50,[3],8.07
same,pEC50,[4],8.73
CCCC[C@H](NC(C)=O)C(=O)N[C@@H]1C(=O)N[C@@H](Cc2c[nH]cn2)C(=O)N[C@H](Cc2ccccc2)C(=O)N[C@@H](CCCNC(=N)N)C(=O)N[C@@H](Cc2c[nH]c3ccccc23)C(=O)NCCCC(=O)N[C@H](C(N)=O)CSSC1(C)C [Ac-Nle-c(Pen-His-D-Phe-Arg-Trp-Gaba-Cys)-NH2] (Ac-[Nle][Pen]H[dF]RW[GABA]C-NH2; disulfide 2-8 (inferred)),pKi,"[1]; Table 5, read-out: Ki hMC1-R",9.27
same,pKi,"[7]; Table 5, read-out: Ki hMC3-R",7.06
same,pKi,"[2]; Table 5, read-out: Ki KMC4-R",8.23
same,pKi,"[8]; Table 5, read-out: Ki hMC5-R",8.59
CCCC[C@H](NC(C)=O)C(=O)N[C@H]1CSSC[C@@H](C(=O)O)NC(=O)[C@H](Cc2c[nH]c3ccccc23)NC(=O)[C@H](CCCNC(=N)N)NC(=O)[C@@H](Cc2ccccc2)NC(=O)[C@H](Cc2c[nH]cn2)NC(=O)[C@@H](C)NC1=O [Ac-Nle-c(Cys-D-Ala-His-D-Phe-Arg-Trp-Cys)-OH],pKi,"[1]; Ki hMC1-R, Table 5",7.51
same,pKi,"[7]; Ki hMC3-R, Table 5",6.82
same,pKi,"[2]; Ki KMC4-R, Table 5",7.81
same,pKi,"[8]; Ki hMC5-R, Table 5",6.94
C[C@@H](O)[C@H](NC(=O)[C@H]1CSSC[C@H](NC(=O)[C@H](N)Cc2ccccc2)C(=O)N[C@@H](Cc2c[nH]cn2)C(=O)N[C@H](Cc2ccccc2)C(=O)N[C@@H](CCCNC(=N)N)C(=O)N[C@@H](Cc2c[nH]c3ccccc23)C(=O)NCCCC(=O)N1)C(N)=O [D-Phe-c(Cys-His-D-Phe-Arg-Trp-Gaba-D-Cys)-Thr-NH2] (H-[dF]CH[dF]RW[GABA][dC]T-NH2; disulfide 2-8),pKi,"[1]; Table 5, read-out: Ki hMC1-R",9.38
same,pKi,"[7]; Table 5, read-out: Ki hMC3-R",6.97
same,pKi,"[2]; Table 5, read-out: Ki KMC4-R",8.32
same,pKi,"[8]; Table 5, read-out: Ki hMC5-R",5.90
CCCC[C@H](NC(C)=O)C(=O)N[C@H]1CSSC(C)(C)[C@@H](C(=O)O)NC(=O)[C@H](Cc2c[nH]c3ccccc23)NC(=O)[C@H](CCCNC(=N)N)NC(=O)[C@@H](Cc2ccccc2)NC(=O)[C@H](Cc2c[nH]cn2)NC(=O)[C@@H](C)NC1=O [Ac-Nle-c(Cys-D-Ala-His-D-Phe-Arg-Trp-Pen)-OH],pKi,"[2]; Ki KMC4-R, Table 5",7.76
same,pKi,"[8]; Ki hMC5-R, Table 5",6.78
CC(=O)N[C@H](CCCNC(=N)N)C(=O)N[C@H]1CSSC(C)(C)[C@@H](C(N)=O)NC(=O)[C@H](Cc2c[nH]c3ccccc23)NC(=O)[C@H](CCCNC(=N)N)NC(=O)[C@@H](Cc2ccccc2)NC(=O)[C@H](Cc2c[nH]cn2)NC(=O)[C@@H](C)NC1=O [Ac-D-Arg-c(Cys-D-Ala-His-D-Phe-Arg-Trp-Pen)-NH2],pKi,"[1]; Ki hMC1-R, Table 5",8.08
same,pKi,"[7]; Ki hMC3-R, Table 5",7.88
same,pKi,"[8]; Ki hMC5-R, Table 5",6.09
same,pEC50,[5],7.58
same,pEC50,[3],7.98
same,pEC50,[4],9.31
same,pEC50,[6],5.61
